Data: ChEMBL document CHEMBL1201862, “PubChem BioAssay data set” (2004)
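Tested at 5 concentrations; 48 h exposure; 96-well plates; endpoints linearly interpolated, else capped at highest concentration. At the GI50, growth is halved.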 The source made the active and inactive calls. Cut-off read from the data, not from the text of the source: active = GI50 up to about 1.1 µM and inactive = higher.

Experiments:
Test in all cases: NCI-60 cell line screen, 48 h
[1] = tested on: UO-31
[2] = tested on: EKVX
[3] = tested on: U-251
[4] = tested on: SNB-19
[5] = tested on: NCI-H460
[6] = tested on: SK-MEL-5
[7] = tested on: HOP-62
[8] = tested on: ACHN
[9] = tested on: SF-268
[10] = tested on: RPMI-8226
[11] = tested on: A549
[12] = tested on: IGROV-1
[13] = tested on: OVCAR-3
[14] = tested on: HOP-92
[15] = tested on: TK-10
[16] = tested on: MCF7
[17] = tested on: SR
[18] = tested on: DU-145

Row | Compound | GI50 [1] | GI50 [2] | GI50 [3] | GI50 [4] | GI50 [5] | GI50 [6] | GI50 [7] | GI50 [8] | GI50 [9] | GI50 [10] | GI50 [11] | GI50 [12] | GI50 [13] | GI50 [14] | GI50 [15] | GI50 [16] | GI50 [17] | GI50 [18]
1 | O=C(Nc1ccc(Cl)cc1Cl)C(=O)C(C(=O)c1ccc2ccccc2c1)C1OC(=O)c2ccccc21 (centres undefined) | 11.4 µM (inactive) | 15.9 µM (inactive) | 2.51 µM (inactive) | 5.78 µM (inactive) | 4.33 µM (inactive) | 9.73 µM (inactive) | 11.9 µM (inactive) | 15.8 µM (inactive) | > 10 µM (inactive) | 4.06 µM (inactive) | 8.32 µM (inactive) | 13.6 µM (inactive) | 10.7 µM (inactive) | 3.3 µM (inactive) |  |  |  | 
2 | Cc1nn(C(=O)c2ccccc2O)c2c1C(c1ccc3ccccc3c1O)SC(=N)N2 (centres undefined) | 4.2 µM (inactive) | 9.79 µM (inactive) | 3.66 µM (inactive) | 8.61 µM (inactive) | 5.53 µM (inactive) | 1.63 µM (inactive) | 4.26 µM (inactive) | 3.8 µM (inactive) | 4.89 µM (inactive) | 4.34 µM (inactive) | 4.91 µM (inactive) | 3.61 µM (inactive) | 2.69 µM (inactive) | 0.378 µM (active) | 8.75 µM (inactive) | 2.44 µM (inactive) | 4.53 µM (inactive) | 
3 | C=C1CC23CCC4C(C)(C(=O)O)CCCC4(C)C2CCC1C3 (centres undefined) | 28.8 µM (inactive) | 20.6 µM (inactive) | 48.1 µM (inactive) | 53.1 µM (inactive) | 21 µM (inactive) |  | > 100 µM (inactive) | 36.5 µM (inactive) | 63.1 µM (inactive) | 47.4 µM (inactive) | 35.5 µM (inactive) | 24.4 µM (inactive) | 30.4 µM (inactive) | 32.8 µM (inactive) | 38.4 µM (inactive) | 47.3 µM (inactive) | 33.3 µM (inactive) | 65.3 µM (inactive)
4 | Cc1c(/C=N/NC(=O)c2ccc(Cl)cc2)c(=O)n(-c2ccccc2)n1C | 95.5 µM (inactive) | > 100 µM (inactive) | > 100 µM (inactive) | > 100 µM (inactive) | > 100 µM (inactive) |  | > 100 µM (inactive) | > 100 µM (inactive) | > 100 µM (inactive) | > 100 µM (inactive) | > 100 µM (inactive) | > 100 µM (inactive) | > 100 µM (inactive) | > 100 µM (inactive) | > 100 µM (inactive) |  | > 100 µM (inactive) | 
5 | N#CCCC[Si]12OCCN(CCO1)CCO2 | > 100 µM (inactive) | > 100 µM (inactive) | > 100 µM (inactive) | > 100 µM (inactive) | > 100 µM (inactive) | > 100 µM (inactive) |  | > 100 µM (inactive) | > 100 µM (inactive) | > 100 µM (inactive) | > 100 µM (inactive) | > 100 µM (inactive) | > 100 µM (inactive) | > 100 µM (inactive) | > 100 µM (inactive) |  | > 100 µM (inactive) | 
6 | CC(CN(C)C)/C(=N\Nc1ccccc1)c1ccccc1 (centres undefined) | 1.13 µM (inactive) | 1.3 µM (inactive) | 1.07 µM (active) | 3.72 µM (inactive) | 0.171 µM (active) | 3.3 µM (inactive) | 0.767 µM (active) | 0.242 µM (active) | 0.22 µM (active) | 0.366 µM (active) | 0.44 µM (active) | 2.09 µM (inactive) | 1.16 µM (inactive) |  | 1.02 µM (active) |  | 0.33 µM (active) | 
7 | CC(=O)Oc1ccc2cc(Oc3ccc(Cl)cc3)c(=O)oc2c1 | 30.6 µM (inactive) | 36.5 µM (inactive) | 42.8 µM (inactive) | 60.4 µM (inactive) | 40.7 µM (inactive) | 20.4 µM (inactive) | 58.2 µM (inactive) | 38.8 µM (inactive) | 53.8 µM (inactive) | 34.8 µM (inactive) | 21.6 µM (inactive) | 30.1 µM (inactive) | 19.2 µM (inactive) | 38.1 µM (inactive) | > 100 µM (inactive) | 32.7 µM (inactive) | 64.7 µM (inactive) | 53.6 µM (inactive)
8 | CCN(CC)c1ccc2cc(-c3csc(C)n3)c(=O)oc2c1 | > 100 µM (inactive) | > 100 µM (inactive) | 57.7 µM (inactive) | 59.7 µM (inactive) | > 100 µM (inactive) | 37.9 µM (inactive) | 30.6 µM (inactive) | 70.3 µM (inactive) | 81.3 µM (inactive) | > 100 µM (inactive) | > 100 µM (inactive) | 45.3 µM (inactive) |  | 27.4 µM (inactive) | 54.7 µM (inactive) | > 100 µM (inactive) | 62.2 µM (inactive) | > 100 µM (inactive)
9 | Cc1cccnc1N/C=C1\C(=O)NC(=O)N(C)C1=O | > 100 µM (inactive) | 44 µM (inactive) | > 100 µM (inactive) | > 100 µM (inactive) | > 100 µM (inactive) | > 100 µM (inactive) | > 100 µM (inactive) | > 100 µM (inactive) | > 100 µM (inactive) |  | > 100 µM (inactive) | 64.1 µM (inactive) | > 100 µM (inactive) | 65.6 µM (inactive) | > 100 µM (inactive) | > 100 µM (inactive) |  | > 100 µM (inactive)
10 | O=C1c2ccc3c4ccccc4n(-c4ccccc4)c3c2C(=O)N1c1ccc(Cl)cc1 | > 100 µM (inactive) | > 100 µM (inactive) | > 100 µM (inactive) | > 100 µM (inactive) | > 100 µM (inactive) | > 100 µM (inactive) | > 100 µM (inactive) | > 100 µM (inactive) | > 100 µM (inactive) |  | > 100 µM (inactive) | > 100 µM (inactive) | > 100 µM (inactive) | 37.3 µM (inactive) | > 100 µM (inactive) |  | > 100 µM (inactive) | 
11 | O=C1C=CC(=O)C2C1Cc1ccccc1C2c1ccccc1 (centres undefined) | 47.1 µM (inactive) | 31.1 µM (inactive) | 18.2 µM (inactive) | > 100 µM (inactive) | 29.9 µM (inactive) | 64 µM (inactive) | > 100 µM (inactive) | 50.4 µM (inactive) | 53.1 µM (inactive) | 22.3 µM (inactive) | 30.1 µM (inactive) | 67 µM (inactive) | 29.6 µM (inactive) | 32 µM (inactive) | 74.1 µM (inactive) |  | 23.7 µM (inactive) | 
12 | C=C(C)[C@H](O)C(O)CC(C)[C@@H]1CCC23CC12CCC1[C@@]2(C)CCC(OC(C)=O)C(C)(C)C2CC(OC2OC(COC(C)=O)C(O)C(O)C2O)[C@]13C (some centres undefined) | 8.18 µM (inactive) | 6.67 µM (inactive) | 4.74 µM (inactive) | 5.9 µM (inactive) | 4.78 µM (inactive) |  | 6.92 µM (inactive) | 6.61 µM (inactive) | 5.31 µM (inactive) | 1.5 µM (inactive) | 6.21 µM (inactive) | 3.78 µM (inactive) | 5.83 µM (inactive) | 5.37 µM (inactive) | 6.55 µM (inactive) |  |  | 
13 | CCN(CC)CCOC(=O)/C(=C/c1ccc(OC)cc1)c1cc(OC)c(OC)c(OC)c1 | 5.13 µM (inactive) | 31.5 µM (inactive) | 4.06 µM (inactive) | 13.4 µM (inactive) | 9.66 µM (inactive) | 3.26 µM (inactive) | 3.8 µM (inactive) | 7.67 µM (inactive) | 5.45 µM (inactive) | 16 µM (inactive) | 5.56 µM (inactive) | 6.01 µM (inactive) | 4.95 µM (inactive) | 3.27 µM (inactive) | 20.3 µM (inactive) |  |  | 
